Source: patent US20240415914A1, “Water Dispersible Cannabinoid Compositions” (priority 2021, published 2024)

Experiment: Stability of cannabinoid and Vitamin E components of Beverage 1 (AB White) stored at 8° C. and 21-25° C., LCMSMS over 570 days
Format: physicochemical
Details: for Stability in AB White, 8° C. (content by LCMSMS): beverage stored at 8° C.; for Stability in AB White, 21-25° C. (content by LCMSMS): beverage stored at 21-25° C.
Experimental: The LCMSMS was calibrated for 0-1000 ng/ml cannabinoids with the same resin material used in the preparation of the concentrates. At each time period, 100 ml of beverage was diluted with 10 ml of methanol and injected into the LCMSMS for analysis.

CCCCCc1cc(O)c2c(c1)OC(C)(CCC=C(C)C)C=C2 (centres unmarked) [CBC, cannabichromene]
Stability in AB White, 8° C. (content by LCMSMS) (day 0): 0.320 µg/mL | Stability in AB White, 8° C. (content by LCMSMS) (day 1): 0.314 µg/mL | Stability in AB White, 8° C. (content by LCMSMS) (day 2): 0.315 µg/mL | Stability in AB White, 8° C. (content by LCMSMS) (day 3): 0.322 µg/mL | Stability in AB White, 8° C. (content by LCMSMS) (day 5): 0.322 µg/mL | Stability in AB White, 8° C. (content by LCMSMS) (day 8): 0.318 µg/mL | Stability in AB White, 8° C. (content by LCMSMS) (day 9): 0.319 µg/mL | Stability in AB White, 8° C. (content by LCMSMS) (day 10): 0.314 µg/mL | Stability in AB White, 8° C. (content by LCMSMS) (day 11): 0.314 µg/mL | Stability in AB White, 8° C. (content by LCMSMS) (day 12): 0.319 µg/mL | Stability in AB White, 8° C. (content by LCMSMS) (day 15): 0.317 µg/mL | Stability in AB White, 8° C. (content by LCMSMS) (day 16): 0.320 µg/mL | Stability in AB White, 8° C. (content by LCMSMS) (day 17): 0.315 µg/mL | Stability in AB White, 8° C. (content by LCMSMS) (day 18): 0.312 µg/mL | Stability in AB White, 8° C. (content by LCMSMS) (day 19): 0.317 µg/mL | Stability in AB White, 8° C. (content by LCMSMS) (day 22): 0.315 µg/mL | Stability in AB White, 8° C. (content by LCMSMS) (day 23): 0.321 µg/mL | Stability in AB White, 8° C. (content by LCMSMS) (day 24): 0.316 µg/mL | Stability in AB White, 8° C. (content by LCMSMS) (day 25): 0.310 µg/mL | Stability in AB White, 8° C. (content by LCMSMS) (day 26): 0.316 µg/mL | Stability in AB White, 8° C. (content by LCMSMS) (day 29): 0.321 µg/mL | Stability in AB White, 8° C. (content by LCMSMS) (day 30): 0.317 µg/mL | Stability in AB White, 8° C. (content by LCMSMS) (day 60): 0.316 µg/mL | Stability in AB White, 8° C. (content by LCMSMS) (day 90): 0.318 µg/mL | Stability in AB White, 8° C. (content by LCMSMS) (day 120): 0.311 µg/mL | Stability in AB White, 8° C. (content by LCMSMS) (day 150): 0.314 µg/mL | Stability in AB White, 8° C. (content by LCMSMS) (day 180): 0.319 µg/mL | Stability in AB White, 8° C. (content by LCMSMS) (day 210): 0.309 µg/mL | Stability in AB White, 8° C. (content by LCMSMS) (day 240): 0.316 µg/mL | Stability in AB White, 8° C. (content by LCMSMS) (day 270): 0.316 µg/mL | Stability in AB White, 8° C. (content by LCMSMS) (day 300): 0.313 µg/mL | Stability in AB White, 8° C. (content by LCMSMS) (day 330): 0.316 µg/mL | Stability in AB White, 8° C. (content by LCMSMS) (day 360): 0.306 µg/mL | Stability in AB White, 8° C. (content by LCMSMS) (day 390): 0.310 µg/mL | Stability in AB White, 8° C. (content by LCMSMS) (day 420): 0.307 µg/mL | Stability in AB White, 8° C. (content by LCMSMS) (day 450): 0.312 µg/mL | Stability in AB White, 8° C. (content by LCMSMS) (day 480): 0.305 µg/mL | Stability in AB White, 8° C. (content by LCMSMS) (day 510): 0.295 µg/mL | Stability in AB White, 8° C. (content by LCMSMS) (day 540): 0.299 µg/mL | Stability in AB White, 8° C. (content by LCMSMS) (day 570): 0.293 µg/mL | Stability in AB White, 21-25° C. (content by LCMSMS) (day 0): 0.320 µg/mL | Stability in AB White, 21-25° C. (content by LCMSMS) (day 1): 0.313 µg/mL | Stability in AB White, 21-25° C. (content by LCMSMS) (day 2): 0.318 µg/mL | Stability in AB White, 21-25° C. (content by LCMSMS) (day 3): 0.311 µg/mL | Stability in AB White, 21-25° C. (content by LCMSMS) (day 5): 0.323 µg/mL | Stability in AB White, 21-25° C. (content by LCMSMS) (day 8): 0.319 µg/mL | Stability in AB White, 21-25° C. (content by LCMSMS) (day 9): 0.307 µg/mL | Stability in AB White, 21-25° C. (content by LCMSMS) (day 10): 0.312 µg/mL | Stability in AB White, 21-25° C. (content by LCMSMS) (day 11): 0.311 µg/mL | Stability in AB White, 21-25° C. (content by LCMSMS) (day 12): 0.316 µg/mL | Stability in AB White, 21-25° C. (content by LCMSMS) (day 15): 0.311 µg/mL | Stability in AB White, 21-25° C. (content by LCMSMS) (day 16): 0.321 µg/mL | Stability in AB White, 21-25° C. (content by LCMSMS) (day 17): 0.323 µg/mL | Stability in AB White, 21-25° C. (content by LCMSMS) (day 18): 0.313 µg/mL | Stability in AB White, 21-25° C. (content by LCMSMS) (day 19): 0.316 µg/mL | Stability in AB White, 21-25° C. (content by LCMSMS) (day 22): 0.322 µg/mL | Stability in AB White, 21-25° C. (content by LCMSMS) (day 23): 0.316 µg/mL | Stability in AB White, 21-25° C. (content by LCMSMS) (day 24): 0.308 µg/mL | Stability in AB White, 21-25° C. (content by LCMSMS) (day 25): 0.310 µg/mL | Stability in AB White, 21-25° C. (content by LCMSMS) (day 26): 0.308 µg/mL | Stability in AB White, 21-25° C. (content by LCMSMS) (day 29): 0.317 µg/mL | Stability in AB White, 21-25° C. (content by LCMSMS) (day 30): 0.317 µg/mL | Stability in AB White, 21-25° C. (content by LCMSMS) (day 60): 0.306 µg/mL | Stability in AB White, 21-25° C. (content by LCMSMS) (day 90): 0.305 µg/mL | Stability in AB White, 21-25° C. (content by LCMSMS) (day 120): 0.318 µg/mL | Stability in AB White, 21-25° C. (content by LCMSMS) (day 150): 0.312 µg/mL | Stability in AB White, 21-25° C. (content by LCMSMS) (day 180): 0.315 µg/mL | Stability in AB White, 21-25° C. (content by LCMSMS) (day 210): 0.307 µg/mL | Stability in AB White, 21-25° C. (content by LCMSMS) (day 240): 0.304 µg/mL | Stability in AB White, 21-25° C. (content by LCMSMS) (day 270): 0.316 µg/mL | Stability in AB White, 21-25° C. (content by LCMSMS) (day 300): 0.312 µg/mL | Stability in AB White, 21-25° C. (content by LCMSMS) (day 330): 0.312 µg/mL | Stability in AB White, 21-25° C. (content by LCMSMS) (day 360): 0.310 µg/mL | Stability in AB White, 21-25° C. (content by LCMSMS) (day 390): 0.303 µg/mL | Stability in AB White, 21-25° C. (content by LCMSMS) (day 420): 0.312 µg/mL | Stability in AB White, 21-25° C. (content by LCMSMS) (day 450): 0.310 µg/mL | Stability in AB White, 21-25° C. (content by LCMSMS) (day 480): 0.294 µg/mL | Stability in AB White, 21-25° C. (content by LCMSMS) (day 510): 0.293 µg/mL | Stability in AB White, 21-25° C. (content by LCMSMS) (day 540): 0.294 µg/mL | Stability in AB White, 21-25° C. (content by LCMSMS) (day 570): 0.295 µg/mL
